Laboratory results taken from ChEMBL document CHEMBL1909046, “DrugMatrix in vitro pharmacology data”.

Columns and labels:
[1] = biological target: T1, Polyunsaturated fatty acid lipoxygenase ALOX15 (Oryctolagus cuniculus, UniProt P12530); test: biochemical; assay type: tissue-based, Reticulocytes;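 note: inhibition of 15-lipoxygenase enzyme activity measured with linoleic acid as the substrate; in other assays of this panel Not Active means under 50% inhibition at 10 µM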
T1 sequence (P12530 whole entry): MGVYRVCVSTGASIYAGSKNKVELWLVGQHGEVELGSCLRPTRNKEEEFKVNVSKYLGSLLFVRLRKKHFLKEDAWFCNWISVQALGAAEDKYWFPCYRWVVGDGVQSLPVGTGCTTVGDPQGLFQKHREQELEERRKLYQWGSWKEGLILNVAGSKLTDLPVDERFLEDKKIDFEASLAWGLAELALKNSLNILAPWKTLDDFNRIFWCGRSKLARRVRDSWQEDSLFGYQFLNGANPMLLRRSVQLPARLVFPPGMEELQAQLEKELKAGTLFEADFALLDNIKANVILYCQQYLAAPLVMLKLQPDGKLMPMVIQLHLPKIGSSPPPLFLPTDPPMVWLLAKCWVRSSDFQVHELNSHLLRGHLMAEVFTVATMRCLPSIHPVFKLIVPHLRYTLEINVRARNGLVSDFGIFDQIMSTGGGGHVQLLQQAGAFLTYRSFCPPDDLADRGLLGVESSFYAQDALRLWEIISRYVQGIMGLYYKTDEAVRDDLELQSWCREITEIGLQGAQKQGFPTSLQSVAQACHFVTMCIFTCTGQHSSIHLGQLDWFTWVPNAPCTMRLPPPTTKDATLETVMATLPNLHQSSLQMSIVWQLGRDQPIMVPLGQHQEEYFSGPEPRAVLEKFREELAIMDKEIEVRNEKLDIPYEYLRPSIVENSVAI

Melanocortin receptor 5 = Melanocortin receptor 5 (Homo sapiens, UniProt P33032); assay type: cell membranes, HEK293, Membrane; settings: hek293; note: in other assays of this panel Not Active means under 50% inhibition at 10 µM
Melanocortin receptor 5, sequence (P33032 whole entry): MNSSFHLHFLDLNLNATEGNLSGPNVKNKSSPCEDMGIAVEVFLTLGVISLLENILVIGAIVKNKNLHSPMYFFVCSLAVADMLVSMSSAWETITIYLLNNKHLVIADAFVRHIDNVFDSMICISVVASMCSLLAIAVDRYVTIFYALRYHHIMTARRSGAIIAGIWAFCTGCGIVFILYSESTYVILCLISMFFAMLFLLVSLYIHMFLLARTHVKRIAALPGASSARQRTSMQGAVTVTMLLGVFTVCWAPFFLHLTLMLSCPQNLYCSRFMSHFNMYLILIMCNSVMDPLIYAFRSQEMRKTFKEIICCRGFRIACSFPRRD

[2] = DRUGMATRIX: Calcium Channel Type L, Phenylalkylamine radioligand binding (ligand: [3H] (-)-Desmethoxyverapamil (D-888)); assay type: cell membranes, Rattus norvegicus, Wistar, Brain, Membrane; settings: Not Active = under 50% inhibition at 10 µM
[3] = biological target: T2, Amine oxidase [flavin-containing] A (Homo sapiens, UniProt P21397); test: DRUGMATRIX: Monoamine Oxidase MAO-A enzyme inhibition (substrate: Kynuramine); design: species or system BTI-TN-5B1-4; settings: bti-tn-5b1-4; Not Active = under 50% inhibition at 10 µM
T2 sequence (P21397 whole entry): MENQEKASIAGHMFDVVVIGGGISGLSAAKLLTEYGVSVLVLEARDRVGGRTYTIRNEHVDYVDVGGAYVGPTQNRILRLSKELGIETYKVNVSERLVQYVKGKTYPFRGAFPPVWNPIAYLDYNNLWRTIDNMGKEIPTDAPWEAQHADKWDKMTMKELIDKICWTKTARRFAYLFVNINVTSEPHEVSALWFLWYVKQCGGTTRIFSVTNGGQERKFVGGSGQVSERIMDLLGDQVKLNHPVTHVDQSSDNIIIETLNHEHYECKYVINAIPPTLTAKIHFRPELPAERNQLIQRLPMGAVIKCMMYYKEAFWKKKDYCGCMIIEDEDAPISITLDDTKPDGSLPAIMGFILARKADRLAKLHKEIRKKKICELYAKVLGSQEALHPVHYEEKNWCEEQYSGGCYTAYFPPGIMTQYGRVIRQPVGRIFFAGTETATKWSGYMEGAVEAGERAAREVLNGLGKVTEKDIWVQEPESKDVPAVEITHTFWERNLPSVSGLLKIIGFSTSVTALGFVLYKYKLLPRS

[4] = biological target: T3, Neuropeptide Y receptor type 1 (Homo sapiens, UniProt P25929); assay type: cell membranes, Membrane; settings: sk-n-mc; note: in other assays of this panel Not Active means under 50% inhibition at 10 µM
T3 sequence (P25929 whole entry): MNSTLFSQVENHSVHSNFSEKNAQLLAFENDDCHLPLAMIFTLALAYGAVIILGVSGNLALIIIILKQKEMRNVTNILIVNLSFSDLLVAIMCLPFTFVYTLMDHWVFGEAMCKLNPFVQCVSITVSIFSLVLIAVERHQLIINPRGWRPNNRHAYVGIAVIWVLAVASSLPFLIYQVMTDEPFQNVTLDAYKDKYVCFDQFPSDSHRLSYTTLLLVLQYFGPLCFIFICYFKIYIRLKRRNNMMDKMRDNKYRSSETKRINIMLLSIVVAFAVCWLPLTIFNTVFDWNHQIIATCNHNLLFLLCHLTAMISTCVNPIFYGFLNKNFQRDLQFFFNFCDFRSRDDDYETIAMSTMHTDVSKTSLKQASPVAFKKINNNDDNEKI

[5] = biological target: T4, 5-hydroxytryptamine receptor 1A (Rattus norvegicus, UniProt P19327); assay type: cell membranes, CHO-K1, Membrane; settings: cho-k1; note: in other assays of this panel Not Active means under 50% inhibition at 10 µM
T4 sequence (P19327 whole entry): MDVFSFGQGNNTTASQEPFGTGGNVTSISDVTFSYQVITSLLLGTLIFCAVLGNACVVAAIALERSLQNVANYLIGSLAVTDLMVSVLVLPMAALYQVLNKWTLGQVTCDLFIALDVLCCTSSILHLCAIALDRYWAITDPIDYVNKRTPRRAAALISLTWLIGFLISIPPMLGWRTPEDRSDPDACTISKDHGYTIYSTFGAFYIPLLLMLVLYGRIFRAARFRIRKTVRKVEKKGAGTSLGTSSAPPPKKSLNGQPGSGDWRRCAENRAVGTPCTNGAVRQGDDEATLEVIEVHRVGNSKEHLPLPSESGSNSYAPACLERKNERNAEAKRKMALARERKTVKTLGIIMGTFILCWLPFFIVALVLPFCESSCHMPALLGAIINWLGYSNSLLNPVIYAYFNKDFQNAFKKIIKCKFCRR

Compound	IC50 ([1]; reticulocytes)	IC50 (Melanocortin receptor 5)	IC50 [2]	Ki [2]	IC50 [3]	IC50 [4]	IC50 [5]	IC50 ([1]; read-out: IC50) [µM]	IC50 ([2]; read-out: IC50) [µM]	Ki ([2]; read-out: Ki) [µM]	Ki ([1]; reticulocytes)	Ki (Melanocortin receptor 5)	Ki [3]	Ki [4]	Ki [5]
O=[As][O-].[Na+] [SODIUM ARSENITE]	Not Active	Not Active	Not Active	Not Active	Not Active	Not Active	Not Active	–	–	–	–	–	–	–	–
CC(=O)O[C@]1(C(C)=O)CC[C@H]2[C@@H]3C[C@H](C)C4=CC(=O)CC[C@]4(C)[C@H]3CC[C@@]21C [MEDROXYPROGESTERONE ACETATE]	Not Active	Not Active	Not Active	Not Active	Not Active	Not Active	Not Active	–	–	–	–	–	–	–	–
CCN1CCCC1CNC(=O)c1cc(S(N)(=O)=O)ccc1OC (stereo not drawn) [SULPIRIDE]	Not Active	Not Active	Not Active	Not Active	Not Active	Not Active	Not Active	–	–	–	–	–	–	–	–
CC(O)C(=O)O (stereo not drawn) [LACTIC ACID]	Not Active	Not Active	Not Active	Not Active	Not Active	Not Active	Not Active	–	–	–	–	–	–	–	–
CC(Cl)(Cl)Cl [TRICHLOROETHANE]	Not Active	Not Active	Not Active	Not Active	Not Active	Not Active	Not Active	–	–	–	–	–	–	–	–
CCC(C)(C)C(=O)O[C@H]1C[C@@H](C)C=C2C=C[C@H](C)[C@H](CC[C@@H]3C[C@@H](O)CC(=O)O3)[C@H]21 [SIMVASTATIN]	Not Active	Not Active	Not Active	Not Active	Not Active	Not Active	Not Active	–	–	–	–	–	–	–	–
Cc1ccnc(NS(=O)(=O)c2ccc(N)cc2)n1 [SULFAMERAZINE]	Not Active	Not Active	Not Active	Not Active	Not Active	Not Active	Not Active	–	–	–	–	–	–	–	–
CCN(CC)N=O [N-NITROSODIETHYLAMINE]	Not Active	Not Active	Not Active	Not Active	Not Active	Not Active	Not Active	–	–	–	–	–	–	–	–
CC#C[C@]1(O)CC[C@H]2[C@@H]3CCC4=CC(=O)CCC4=C3[C@@H](c3ccc(N(C)C)cc3)C[C@@]21C [MIFEPRISTONE]	–	Not Active	–	–	Not Active	Not Active	Not Active	0.555	16	15.6	–	–	–	–	–
LEAD(IV) ACETATE	Not Active	Not Active	Not Active	Not Active	Not Active	Not Active	Not Active	–	–	–	Not Active	Not Active	Not Active	Not Active	Not Active
O=C(OC[C@H]1O[C@@H](OC(=O)c2cc(O)c(O)c(OC(=O)c3cc(O)c(O)c(O)c3)c2)[C@H](OC(=O)c2cc(O)c(O)c(OC(=O)c3cc(O)c(O)c(O)c3)c2)[C@@H](OC(=O)c2cc(O)c(O)c(OC(=O)c3cc(O)c(O)c(O)c3)c2)[C@@H]1OC(=O)c1cc(O)c(O)c(OC(=O)c2cc(O)c(O)c(O)c2)c1)c1cc(O)c(O)c(OC(=O)c2cc(O)c(O)c(O)c2)c1 [TANNIC ACID]	–	Not Active	Not Active	Not Active	Not Active	Not Active	Not Active	0.268	–	–	–	–	–	–	–
CC[C@@]1(O)C(=O)OCc2c1cc1n(c2=O)Cc2cc3c(CN(C)C)c(O)ccc3nc2-1 [TOPOTECAN]	Not Active	Not Active	Not Active	Not Active	Not Active	Not Active	Not Active	–	–	–	–	–	–	–	–
C=CCc1ccc2c(c1)OCO2 [SAFROLE]	Not Active	Not Active	Not Active	Not Active	Not Active	Not Active	Not Active	–	–	–	–	–	–	–	–
C1CCN2C[C@@H]3C[C@@H](CN4CCCC[C@@H]34)[C@H]2C1 [SPARTEINE]	Not Active	Not Active	Not Active	Not Active	Not Active	Not Active	Not Active	–	–	–	–	–	–	–	–
